Consider two molecules from patent publication US20070270408A1, “Pharmaceutical use of substituted pyrazolo[1,5-a]pyrimidines” (Novo Nordisk A/S, priority 2003, published 2007).

The target in the experiment is T1, h-11βHSD1 (Homo sapiens, UniProt P28845).
T1 construct: made in house
Put plainly: 11βHSD1 enzyme assay (SPA). The class given is biochemical. The conditions noted are these: yeast extract with h-11βHSD1, 120 nM 3H-cortisone, 4 mM β-NADPH, 60 min at 30° C. As to the method: Pharmacological Methods 11βHSD1 Enzyme Assay Materials
^3H-cortisone and anti-rabbit Ig coated scintillation proximity assay (SPA) beads were purchased from Amersham Pharmacia Biotech, β-NADPH was from Sigma and rabbit anti-cortisol antibodies were from Fitzgerald. An extract of yeast transformed with h-11βHSD1 (Hult et al., FEBS Lett, 441, 25 (1998)) was used as the source of enzyme. The test compounds were dissolved in DMSO (10 mM). All dilutions were performed in a buffer containing 50 mM TRIS-HCl (Sigma Chemical Co), 4 mM EDTA (Sigma Chemical Co), 0.1% BSA (Sigma Chemical Co), 0.01% Tween-20 (Sigma Chemical Co) and 0.005% bacitracin (Novo Nordisk A/S), pH=7.4. Optiplate 96 wells plates were supplied by Packard. The amount of ^3H-cortisol bound to the SPA beads was measured on TopCount NXT, Packard.
h-11βHSD1, 120 nM ^3H-cortisone, 4 mM β-NADPH, antibody (1:200), serial dilutions of test compound and SPA particles (2 mg/well) were added to the wells. The reaction was initiated by mixing the different components and was allowed to proceed under shaking for 60 min at 30° C. […] Data was analysed using GraphPad Prism software.

T1 sequence (P28845 whole entry): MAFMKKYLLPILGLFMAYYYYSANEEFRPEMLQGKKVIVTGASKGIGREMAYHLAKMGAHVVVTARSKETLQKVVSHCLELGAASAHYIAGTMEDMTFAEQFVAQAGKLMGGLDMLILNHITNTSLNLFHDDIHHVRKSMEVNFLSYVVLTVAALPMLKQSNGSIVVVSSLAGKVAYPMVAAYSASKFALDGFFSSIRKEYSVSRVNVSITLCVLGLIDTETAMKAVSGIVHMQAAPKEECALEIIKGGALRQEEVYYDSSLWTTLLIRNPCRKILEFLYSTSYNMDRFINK

Broadly, the IC50 is the concentration at which inhibition is half-maximal. Read a low IC50 as inhibition by little substance. `Cc1cc(C(F)(F)F)n2nc(C(=O)N3CCCCC3)cc2n1` [Example 3, (5-methyl-7-trifluoromethyl-pyrazolo[1,5-a]pyrimidin-2-yl)-(piperidin-1-yl)methanone] returned an IC50 of 4.7 µM. Under `Cc1cc(-c2ccccc2)n2nc(C(=O)N(C)C3CCCCC3)cc2n1` [Example 4] stands 0.34 µM.
